The record followed here is paper PMC10094921, “A Lipidated Single-B-Chain Derivative of Relaxin Exhibits Improved In Vitro Serum Stability without Altering Activity” (International Journal of Molecular Sciences, 2023).

Starred links: 1 amine or outer side, 2 acyl side, 3 side chain; linkers in the order of their positions; H or OH if unused. Non-standard residues stand in square brackets, D forms with d. Residues, ends and D or L forms follow the SMILES beside them. Groups on a side chain read outwards from the residue. *: point of attachment. PEG12 = NCCOCCOCCOCCOCCOCCOCCOCCOCCOCCOCCOCCOCCC(=O)O; γGlu = O=C(O)[C@H](CCC(=O)[*:2])N[*:1]; PEG6 = NCCOCCOCCOCCOCCOCCOCCC(=O)O; Palmitoyl = CCCCCCCCCCCCCCCC(=O)*

What is called half-life is the time in which the quantity being followed falls by half.

In series [1] the target is T1, 7BP protein (RXFP1 extracellular domain attached with a single TM domain) (Homo sapiens, UniProt Q9HBX9).
T1 construct: RXFP1 extracellular domain attached with a single TM domain instead of the native 7 TM domain; single transmembrane domain replacing the native 7 TM domain (heterologous); expressed in transfected cells; host or cells: HEK-293T cells stably expressing 7BP (HEK-7BP)
T1 sequence (Q9HBX9 1-409 limits assumed): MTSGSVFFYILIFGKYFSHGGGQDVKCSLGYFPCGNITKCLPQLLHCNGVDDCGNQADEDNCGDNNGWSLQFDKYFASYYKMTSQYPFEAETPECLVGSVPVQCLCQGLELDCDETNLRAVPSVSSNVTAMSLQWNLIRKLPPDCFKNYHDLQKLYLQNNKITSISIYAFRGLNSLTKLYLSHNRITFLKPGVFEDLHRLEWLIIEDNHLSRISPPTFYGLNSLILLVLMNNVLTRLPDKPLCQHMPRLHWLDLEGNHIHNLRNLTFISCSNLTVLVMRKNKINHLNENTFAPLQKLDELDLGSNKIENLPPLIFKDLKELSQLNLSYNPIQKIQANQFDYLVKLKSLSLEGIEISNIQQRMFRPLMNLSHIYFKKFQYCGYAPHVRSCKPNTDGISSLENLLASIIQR
In words: Eu-H2 relaxin competition binding in HEK-7BP cells, BSA free. To be noted: HEK-293T cells stably expressing 7BP, BSA excluded from buffer, mean ± SEM, n in brackets, one-site fit, read-out: HEK-7BP Binding B.S.A. Free Eu-H2 pKi (n) (converted). As to the method: 3.6. HEK-7BP Binding Assays
HEK-293T cells stably expressing the 7BP protein (HEK-7BP; RXFP1 extracellular domain attached with a single TM domain instead of the native 7 TM domain [30]) were plated in 96-well plates. The medium was aspirated off, and the cells were washed with phosphate-buffered saline (PBS) before competition binding assays were performed with Eu-H2 Relaxin (RXFP1 ligand), as previously described, with the only difference being that BSA was excluded from the binding assay buffer. Competition binding curves for each peptide were performed in triplicate, and each experiment was performed independently at least three times. Fluorescent measurements were carried out on a BMG POLARstar plate reader (BMG Labtech, Melbourne, Australia). Pooled data are presented as mean ± SE of specific binding and are fitted using a one-site binding curve in GraphPad Prism version 8 (GraphPad Inc., San Diego, CA, USA). Statistical analyses were conducted using a one-way analysis of variance with uncorrected Fisher’s least significant difference (LSD) post-hoc analysis in GraphPad Prism version 8.

Series [2] has as its system BJ3 human dermal myofibroblasts. In words: Myofibroblast differentiation in vitro (α-SMA expression, Western blot). In kind it is cell-based. As to the method: 3.8. Determination of the Effects of Lipidated (L)-B7-33 on Myofibroblast Differentiation In Vitro
To determine if the lipidation of B7-33 prolonged its ability to suppress myofibroblast differentiation in vitro, the effects of the native B7-33 peptide vs. lipidated (L)-B7-33 were compared in BJ3 cells, a human dermal fibroblast cell line. BJ3 fibroblasts were used between passages 15–18 and cultured as described before. […] BJ3 cells were plated in 12-well plates at a density of 1–1.25 × 10^5 cells per well and were then either left untreated or stimulated with transforming growth factor (TGF)-β1 (T; 2 ng/mL) alone (to promote myofibroblast differentiation) or with T + B7-33 (100 ng/mL) or T + L-B7-33 (100 ng/mL) for a 14-day period, in media that was left unchanged over this time period. The cells from duplicate wells per treatment group were isolated from plates at 3-, 5-, 7-, 10- and 14-days post-T ± peptide treatment and extracted for protein using the RIPA lysis buffer (ThermoFisher Scientific; Scoresby, Victoria, Australia). These experiments were performed six independent times.
Half the cell protein (in 10 μL of RIPA buffer) from each sample (that was fully reconstituted in 20 μL of RIPA buffer) was loaded and electrophoresed in separate mini-protean 4–15% precast gels, and analyzed by Western blotting using a primary monoclonal antibody to α-SMA (42 kDa; M0851; […]; Agilent Technologies, Santa Clara, CA, USA). The equivalent loading of protein between samples was confirmed using a rabbit monoclonal glyceraldehyde 3-phosphate dehydrogenase (GAPDH) housekeeping antibody (37 kDa; 2118; 1:1000 dilution; Cell Signaling Technology; Danvers, MA, USA). Each membrane was then subjected to appropriate anti-mouse (7076) or anti-rabbit (7074) horseradish peroxidase-conjugated secondary antibodies (both at a 1:2000 dilution; Cell Signaling Technologies), before proteins were detected using the Clarity Western ECL substrate detection kit and quantified by densitometry with a ChemiDoc MP Imaging System and Image Lab v.6.0 software (both from Bio-Rad Laboratories, Hercules, CA, USA).The density of α-SMA from each sample was corrected for GAPDH protein levels and then expressed relative to the ratio that was measured from the unstimulated control group, which was expressed as 1 in each case. Representative blots of α-SMA and GAPDH were also chosen for presentation in each case.
In general terms: Immunoblotting shows a protein as a band on a membrane.

Series [3] can be described thus: In vitro serum stability assay. Type of series: in vitro ADME, human. The settings on record: 37 °C. As for the experimental part:
3.7. In Vitro Serum Stability Assay
A total of 400 µL of human serum was taken, and 200 µg peptide dissolved in 100 µL of water was added to human serum at 37 °C. A total of 80 µL of samples was removed at various time points (0 min, 30 min, 60 min, 120 min, 240 min, and 480 min), and 160 µL of acetonitrile was added to precipitate plasma proteins. The solution was then centrifuged at 12,000 rpm for 15 min at 4 °C. A total of 200 µL of supernatant was taken out and mixed with 240 µL of milli-Q water, and each sample was analyzed by RP-HPLC (2 × 80 μL injection), by measuring the area under the peak at the appropriate retention time compared to the peak area of the peptide at time zero minute (100%). Data analysis (n = 3, duplicate) was performed using Prism Version 8.0.2, a non-linear-fit one-phase decay model.

As to `CCCCCCCCCCCCCCCC(=O)NCCCC[C@H](NC(=O)[C@H](CCC(=O)O)NC(=O)[C@H](Cc1ccc(O)cc1)NC(=O)[C@@H](N)CCC(=O)O)C(=O)N[C@@H](CCC(=O)O)C(=O)N[C@@H](Cc1ccc(O)cc1)C(=O)N[C@@H](CCC(=O)O)C(=O)NCCOCCOCCOCCOCCC(=O)N[C@H](C(=O)N[C@H](C(=O)N[C@@H](CCCCN)C(=O)N[C@@H](CC(C)C)C(=O)N[C@@H](CO)C(=O)NCC(=O)N[C@@H](CCCNC(=N)N)C(=O)N[C@@H](CCC(=O)O)C(=O)N[C@@H](CC(C)C)C(=O)N[C@H](C(=O)N[C@@H](CCCNC(=N)N)C(=O)N[C@@H](C)C(=O)N[C@@H](CCC(N)=O)C(=O)N[C@H](C(=O)N[C@@H](C)C(=O)N[C@H](C(=O)N[C@@H](CO)C(=O)NCC(=O)N[C@@H](CCSC)C(=O)N[C@@H](CO)C(=O)N[C@H](C(=O)N[C@@H](Cc1c[nH]c2ccccc12)C(=O)N[C@@H](CO)C(=O)N[C@@H](CCCCN)C(=O)N[C@@H](CCCNC(=N)N)C(=O)N[C@@H](CO)C(=O)N[C@@H](CC(C)C)C(N)=O)[C@@H](C)O)[C@@H](C)CC)[C@@H](C)CC)C(C)C)[C@@H](C)CC)C(C)C` [Tag-PEG4-B7-33], the Ki in series [1] was above 10 µM.
As for `CCCCCCCCCCCCCCCC(=O)NCCCC[C@H](NC(=O)[C@H](CCC(=O)O)NC(=O)[C@H](Cc1ccc(O)cc1)NC(=O)[C@@H](N)CCC(=O)O)C(=O)N[C@@H](CCC(=O)O)C(=O)N[C@@H](Cc1ccc(O)cc1)C(=O)N[C@@H](CCC(=O)O)C(=O)N[C@H](C(=O)N[C@H](C(=O)N[C@@H](CCCCN)C(=O)N[C@@H](CC(C)C)C(=O)N[C@@H](CO)C(=O)NCC(=O)N[C@@H](CCCNC(=N)N)C(=O)N[C@@H](CCC(=O)O)C(=O)N[C@@H](CC(C)C)C(=O)N[C@H](C(=O)N[C@@H](CCCNC(=N)N)C(=O)N[C@@H](C)C(=O)N[C@@H](CCC(N)=O)C(=O)N[C@H](C(=O)N[C@@H](C)C(=O)N[C@H](C(=O)N[C@@H](CO)C(=O)NCC(=O)N[C@@H](CCSC)C(=O)N[C@@H](CO)C(=O)N[C@H](C(=O)N[C@@H](Cc1c[nH]c2ccccc12)C(=O)N[C@@H](CO)C(=O)N[C@@H](CCCCN)C(=O)N[C@@H](CCCNC(=N)N)C(=O)N[C@@H](CO)C(=O)N[C@@H](CC(C)C)C(N)=O)[C@@H](C)O)[C@@H](C)CC)[C@@H](C)CC)C(C)C)[C@@H](C)CC)C(C)C` [Tag-B7-33] (H-EYEK(Palmitoyl)EYEVIKLSGRELVRAQIAISGMSTWSKRSL-NH2), the Ki in series [1] is above 10 µM.
Same read-out and setting: with `CCCCCCCCCCCCCCCC(=O)NCCCC[C@H](NC(=O)[C@@H](NC(=O)[C@@H](N)C(C)C)[C@@H](C)CC)C(=O)N[C@@H](CC(C)C)C(=O)N[C@@H](CO)C(=O)NCC(=O)N[C@@H](CCCNC(=N)N)C(=O)N[C@@H](CCC(=O)O)C(=O)N[C@@H](CC(C)C)C(=O)N[C@H](C(=O)N[C@@H](CCCNC(=N)N)C(=O)N[C@@H](C)C(=O)N[C@@H](CCC(N)=O)C(=O)N[C@H](C(=O)N[C@@H](C)C(=O)N[C@H](C(=O)N[C@@H](CO)C(=O)NCC(=O)N[C@@H](CCSC)C(=O)N[C@@H](CO)C(=O)N[C@H](C(=O)N[C@@H](Cc1c[nH]c2ccccc12)C(=O)N[C@@H](CO)C(=O)N[C@@H](CCCCN)C(=O)N[C@@H](CCCNC(=N)N)C(=O)N[C@@H](CO)C(=O)N[C@@H](CC(C)C)C(N)=O)[C@@H](C)O)[C@@H](C)CC)[C@@H](C)CC)C(C)C` [B7-33_9K(Palm)] (H-VIK(Palmitoyl)LSGRELVRAQIAISGMSTWSKRSL-NH2; N-terminus assumed) the figure was above 10 µM; with `CCCCCCCCCCCCCCCC(=O)NCCOCCOCCOCCOCCOCCOCCC(=O)N[C@H](C(=O)N[C@H](C(=O)N[C@@H](CCCCN)C(=O)N[C@@H](CC(C)C)C(=O)N[C@@H](CO)C(=O)NCC(=O)N[C@@H](CCCNC(=N)N)C(=O)N[C@@H](CCC(=O)O)C(=O)N[C@@H](CC(C)C)C(=O)N[C@H](C(=O)N[C@@H](CCCNC(=N)N)C(=O)N[C@@H](C)C(=O)N[C@@H](CCC(N)=O)C(=O)N[C@H](C(=O)N[C@@H](C)C(=O)N[C@H](C(=O)N[C@@H](CO)C(=O)NCC(=O)N[C@@H](CCSC)C(=O)N[C@@H](CO)C(=O)N[C@H](C(=O)N[C@@H](Cc1c[nH]c2ccccc12)C(=O)N[C@@H](CO)C(=O)N[C@@H](CCCCN)C(=O)N[C@@H](CCCNC(=N)N)C(=O)N[C@@H](CO)C(=O)N[C@@H](CC(C)C)C(N)=O)[C@@H](C)O)[C@@H](C)CC)[C@@H](C)CC)C(C)C)[C@@H](C)CC)C(C)C` [Palmitic acid-PEG6-B7-33] ({Palmitoyl-PEG6}-VIKLSGRELVRAQIAISGMSTWSKRSL-NH2), above 10 µM.
Turning to `CCCCCCCCCCCCCCCC(=O)N[C@@H](CCC(=O)NCCCC[C@H](NC(C)=O)C(=O)NCCOCCOCCOCCOCCOCCOCCOCCOCCOCCOCCOCCOCCC(=O)N[C@H](C(=O)N[C@H](C(=O)N[C@@H](CCCCN)C(=O)N[C@@H](CC(C)C)C(=O)N[C@@H](CO)C(=O)NCC(=O)N[C@@H](CCCNC(=N)N)C(=O)N[C@@H](CCC(=O)O)C(=O)N[C@@H](CC(C)C)C(=O)N[C@H](C(=O)N[C@@H](CCCNC(=N)N)C(=O)N[C@@H](C)C(=O)N[C@@H](CCC(N)=O)C(=O)N[C@H](C(=O)N[C@@H](C)C(=O)N[C@H](C(=O)N[C@@H](CO)C(=O)NCC(=O)N[C@@H](CCSC)C(=O)N[C@@H](CO)C(=O)N[C@H](C(=O)N[C@@H](Cc1c[nH]c2ccccc12)C(=O)N[C@@H](CO)C(=O)N[C@@H](CCCCN)C(=O)N[C@@H](CCCNC(=N)N)C(=O)N[C@@H](CO)C(=O)N[C@@H](CC(C)C)C(N)=O)[C@@H](C)O)[C@@H](C)CC)[C@@H](C)CC)C(C)C)[C@@H](C)CC)C(C)C)C(=O)O` [Ac K(PalmGlu)-PEG12-B7-33] (Ac-K([γGlu-Palmitoyl])[PEG12]VIKLSGRELVRAQIAISGMSTWSKRSL-NH2), the “α-SMA expression levels versus T-alone-stimulated cells, in words” value in series [2] (peptide 100 ng/mL + T 2 ng/mL, after 7–14 days of culture) was “fully returned to those measured for T-alone-stimulated cells”. Besides, in series [2] (peptide 100 ng/mL + T 2 ng/mL, after 5 days, media unchanged, 0.5% FCS), the “α-SMA expression level relative to T-alone-stimulated cells” value is ~ 70%. For the same molecule, in series [2] (peptide 100 ng/mL co-administered with T (2 ng/mL), after 72 h of culture, 0.5% FCS, n = 6 in duplicate), the “suppression of TGF-α-induced increase in α-SMA expression” value is listed as “almost fully suppressed”. Besides, the half-life at 400 µg/mL in series [3] (human serum 400 µL + 200 µg peptide in 100 µL water, samples 0-480 min, acetonitrile precipitation, RP-HPLC peak area vs time zero, one-phase decay fit, n = 3, duplicate) is 1 h. The “in vitro serum stability, in words” value in series [3] (human serum, RP-HPLC, n = 3 independent experiments) is given as “stable in serum over time”.
